# In patent publication US8574563B2 (Bristol-Myers Squibb Company, priority 2006, dated 2013):
# Tested on: HCV 1b-377-neo replicon cells
# Assay: HCV replicon assay, HCV 1b-377-neo replicon cells (1b FRET)
# Format: cell-based, Hepatitis C virus genotype 1b
# Settings: HCV 1b-377-neo replicon cells; HCV 1b genotype; read-out: EC50 range against HCV 1b (Table 2, Range)
# Method in brief: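 FRET-based replicon assay in HCV 1b-377-neo cells, including a comparison line carrying the NS5A Y2065H mutation that confers resistance to a reference compound.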
row,Compound,EC50
1,"COC(=O)N[C@@H](C(=O)N1CCC[C@H]1c1ncc(-c2ccc(-c3ccc(-c4cnc([C@@H]5CCCN5C(=O)c5cnco5)[nH]4)cc3)cc2)[nH]1)c1ccccc1 [Example 72, methyl ((1R)-2-((2S)-2-(5-(4′-(2-((2S)-1-(1,3-oxazol-5-ylcarbonyl)-2-pyrrolidinyl)-1H-imidazol-5-yl)-4-biphenylyl)-1H-imidazol-2-yl)-1-pyrrolidinyl)-2-oxo-1-phenylethy)carbamate]",1000 to 99000 pM
2,"O=C(C(c1ccccc1)N1CCC(c2ccccc2)CC1)N1CCC[C@H]1c1ncc(-c2ccc(-c3ccc(-c4c[nH]c([C@@H]5CCCN5C(=O)[C@H]5CCCO5)n4)cc3)cc2)[nH]1 (stereo partly drawn) [Example 103-2, 1-(2-oxo-1-phenyl-2-((2S)-2-(5-(4′-(2-((2S)-1-((2R)-tetrahydro-2-furanylcarbonyl)-2-pyrrolidinyl)-1H-imidazol-4-yl)-4-biphenylyl)-1H-imidazol-2-yl)-1-pyrrolidinyl)ethyl)-4-phenylpiperidine]",1 to 999 pM

# Same assay, conditions: Hepatitis C virus, HCV 1b-377-neo replicon cells; HCV 1b genotype; read-out: EC50 range against HCV 1b (Table 2, Range)
row,Compound,EC50
1,"CN(C)[C@@H](C(=O)N1CCC[C@H]1c1ncc(-c2ccc(-c3ccc(-c4cnc([C@@H]5CCCN5C(=O)[C@@H](c5ccccc5F)N(C)C)[nH]4)cc3)cc2)[nH]1)c1ccccc1 [Example 107-31, (1R)-2-((2S)-2-(5-(4′-(2-((2S)-1-((2R)-2-(dimethylamino)-2-(2-fluorophenyl)acetyl)-2-pyrrolidinyl)-1H-imidazol-5-yl)-4-biphenylyl)-1H-imidazol-2-yl)-1-pyrrolidinyl)-N,N-dimethyl-2-oxo-1-phenylethanamine]",1 to 999 pM
2,"CN(C)[C@@H](C(=O)N1CCC[C@H]1c1ncc(-c2ccc(-c3ccc(-c4cnc([C@@H]5CCCN5C(=O)[C@@](C)(O)c5ccccc5F)[nH]4)cc3)cc2)[nH]1)c1ccccc1 [Example 94-1, (2S)-1-((2S)-2-(5-(4′-(2-((2S)-1-((2R)-2-(dimethylamino)-2-phenylacetyl)-2-pyrrolidinyl)-1H-imidazol-5-yl)-4-biphenylyl)-1H-imidazol-2-yl)-1-pyrrolidinyl)-2-(2-fluorophenyl)-1-oxo-2-propanol]",1 to 999 pM
3,"COC(=O)N[C@@H](C(=O)N1CCC[C@H]1c1ncc(-c2ccc(-c3ccc(-c4cnc([C@@H]5CCCN5C(=O)N(C)C)[nH]4)cc3)cc2)[nH]1)c1ccccc1 [Example 50, methyl ((1R)-2-((2S)-2-(5-(4′-(2-((2S)-1-(dimethylcarbamoyl)-2-pyrrolidinyl)-1H-imidazol-5-yl)-4-biphenylyl)-1H-imidazol-2-yl)-1-pyrrolidinyl)-2-oxo-1-phenylethyl)carbamate]",100000 to 999000 pM
4,"COC(=O)N[C@H](C(=O)N1[C@H](c2ncc(-c3ccc(-c4ccc(-c5cnc([C@@H]6C[C@@H]7C[C@@H]7N6C(=O)[C@@H](NC(=O)OC)C(C)C)[nH]5)cc4)cc3)[nH]2)C[C@@H]2C[C@@H]21)C(C)C [Example M122, methyl ((1S)-1-(((1S,3S,5S)-3-(5-(4′-(2-((1S,3S,5S)-2-((2S)-2-((methoxycarbonyl)amino)-3-methylbutanoyl)-2-azabicyclo[3.1.0]hex-3-yl)-1H-imidazol-5-yl)-4-biphenylyl)-1H-imidazol-2-yl)-2-azabicyclo[3.1.0]hex-2-yl)carbonyl)-2-methylpropyl)carbamate]",1000 to 99000 pM
5,"COC(=O)N[C@@H](Cn1cccn1)C(=O)N1CCC[C@H]1c1ncc(-c2ccc(-c3ccc(-c4cnc([C@@H]5CCCN5C(=O)[C@@H](NC(=O)OC)C(C)C)[nH]4)cc3)cc2)[nH]1 [cj-38, methyl ((1S)-1-(((2S)-2-(5-(4′-(2-((2S)-1-((2S)-2-((methoxycarbonyl)amino)-3-(1H-pyrazol-1-yl)propanoyl)-2-pyrrolidinyl)-1H-imidazol-5-yl)-4-biphenylyl)-1H-imidazol-2-yl)-1-pyrrolidinyl)carbonyl)-2-methylpropyl)carbamate]",1 to 999 pM
6,COC(=O)N[C@@H](C(=O)N1CCC[C@H]1c1ncc(-c2ccc(-c3ccc(-c4cnc([C@@H]5CCCN5C(=O)[C@H](NC(=O)OC)c5ccccc5)[nH]4)cc3C)c(C)c2)[nH]1)c1ccccc1 [Example 122],1 to 999 pM
7,"COC(=O)N[C@@H](C(=O)N1CCC[C@H]1c1ncc(-c2ccc(-c3ccc(-c4cnc([C@@H]5CCCN5C(=O)[C@@H](C)NC(C)=O)[nH]4)cc3)cc2)[nH]1)c1ccccc1 [Example 53, methyl ((1R)-2-((2S)-2-(5-(4′-(2-((2S)-1-(N-acetyl-D-alanyl)-2-pyrrolidinyl)-1H-imidazol-5-yl)-4-biphenylyl)-1H-imidazol-2-yl)-1-pyrrolidinyl)-2-oxo-1-phenylethyl)carbamate]",1 to 999 pM
8,"COC(=O)NCC(=O)N1[C@@H](C)CC[C@H]1c1nc(-c2ccc(-c3ccc(-c4c[nH]c([C@@H]5CC[C@H](C)N5C(=O)CNC(=O)OC)n4)cc3)cc2)c[nH]1 [Example M155, methyl (2-((2S,5S)-2-(4-(4′-(2-((2S,5S)-1-(((methoxycarbonyl)amino)acetyl)-5-methyl-2-pyrrolidinyl)-1H-imidazol-4-yl)-4-biphenylyl)-1H-imidazol-2-yl)-5-methyl-1-pyrrolidinyl)-2-oxoethyl)carbamate]",1000 to 99000 pM
9,"O=C(O)c1nc([C@@H]2CCCN2C(=O)[C@@H](c2ccccc2)N2CCCCC2)[nH]c1-c1ccc(-c2ccc(-c3cnc([C@@H]4CCCN4C(=O)[C@@H](c4ccccc4)N4CCCCC4)[nH]3)cc2)cc1 [Example J31, 2-((2S)-1-((2R)-2-phenyl-2-(1-piperidinyl)acetyl)-2-pyrrolidinyl)-5-(4′-(2-((2S)-1-((2R)-2-phenyl-2-(1-piperidinyl)acetyl)-2-pyrrolidinyl)-1H-imidazol-5-yl)-4-biphenylyl)-1H-imidazole-4-carboxylic acid]",1 to 999 pM
10,"COC(=O)c1nc([C@@H]2CCCN2C(=O)[C@@H](c2ccccc2)N2CCCCC2)[nH]c1-c1ccc(-c2ccc(-c3cnc([C@@H]4CCCN4C(=O)[C@@H](c4ccccc4)N4CCCCC4)[nH]3)cc2)cc1 [Example J18, methyl 2-((2S)-1-((2R)-2-phenyl-2-(1-piperidinyl)acetyl)-2-pyrrolidinyl)-5-(4′-(2-((2S)-1-((2R)-2-phenyl-2-(1-piperidinyl)acetyl)-2-pyrrolidinyl)-1H-imidazol-5-yl)-4-biphenylyl)-1H-imidazole-4-carboxylate]",1 to 999 pM
11,"CCN(CC)[C@@H](C(=O)N1CCC[C@H]1c1ncc(-c2ccc(-c3ccc(-c4cnc([C@@H]5CCCN5C(=O)CC(Cc5ccccc5F)NC(=O)OC)[nH]4)cc3)cc2)[nH]1)c1ccccc1 (stereo in doubt) [cj-59, methyl ((1S)-3-((2S)-2-(5-(4′-(2-((2S)-1-((2R)-2-(diethylamino)-2-phenylacetyl)-2-pyrrolidinyl)-1H-imidazol-5-yl)-4-biphenylyl)-1H-imidazol-2-yl)-1-pyrrolidinyl)-1-(2-fluorobenzyl)-3-oxopropyl)carbamate]",1 to 999 pM
12,"CCN(CC)[C@@H](C(=O)N1CCC[C@H]1c1ncc(-c2ccc(-c3ccc(-c4cnc([C@@H]5CCCN5C(=O)[C@@H](Nc5cccnc5)C(C)C)[nH]4)cc3)cc2)[nH]1)c1ccccc1 [cj-20c, N-((1S)-1-(((2S)-2-(5-(4′-(2-((2S)-1-((2R)-2-(diethylamino)-2-phenylacetyl)-2-pyrrolidinyl)-1H-imidazol-5-yl)-4-biphenylyl)-1H-imidazol-2-yl)-1-pyrrolidinyl)carbonyl)-2-methylpropyl)-3-pyridinamine]",1 to 999 pM
13,"CC(C)[C@H](NC(=O)C1CC1)C(=O)N1[C@@H]2C[C@@H]2C[C@H]1c1ncc(-c2ccc(-c3ccc(-c4cnc([C@@H]5C[C@H]6C[C@H]6N5C(=O)[C@@H](NC(=O)C5CC5)C(C)C)[nH]4)cc3)cc2)[nH]1 [Example M141, N-((1S)-1-(((1R,3S,5R)-3-(4-(4′-(2-((1R,3S,5R)-2-((2S)-2-((cyclopropylcarbonyl)amino)-3-methylbutanoyl)-2-azabicyclo[3.1.0]hex-3-yl)-1H-imidazol-4-yl)-4-biphenylyl)-1H-imidazol-2-yl)-2-azabicyclo[3.1.0]hex-2-yl)carbonyl)-2-methylpropyl)cyclopropanecarbamate]",1000 to 99000 pM
14,"O=C([C@@H](c1ccccc1)N1CCCCC1)N1CCC[C@H]1c1ncc(-c2ccc(-c3ncc(-c4cnc([C@@H]5CCCN5C(=O)[C@@H](c5ccccc5)N5CCCCC5)[nH]4)cn3)cc2)[nH]1 [Example 152j-5, 5-(2-((2S)-1-((2R)-2-phenyl-2-(1-piperidinyl)acetyl)-2-pyrrolidinyl)-1H-imidazol-5-yl)-2-(4-(2-((2S)-1-((2R)-2-phenyl-2-(1-piperidinyl)acetyl)-2-pyrrolidinyl)-1H-imidazol-4-yl)phenyl)pyrimidine]",1 to 999 pM
15,"COC(=O)N[C@@H](C(=O)N1CCC[C@H]1c1ncc(-c2ccc(-c3ccc(-c4cnc([C@@H]5CCCN5C(=O)CCC(C)=O)[nH]4)cc3)cc2)[nH]1)c1ccccc1 [Example 84-39, methyl ((1R)-2-oxo-2-((2S)-2-(5-(4′-(2-((2S)-1-(4-oxopentanoyl)-2-pyrrolidinyl)-1H-imidazol-5-yl)-4-biphenylyl)-1H-imidazol-2-yl)-1-pyrrolidinyl)-1-phenylethyl)carbamate]",1 to 999 pM
16,"COC(=O)N[C@@H](C(=O)N1CCC[C@H]1c1ncc(-c2ccc(-c3ccc(-c4cnc([C@@H]5CCCN5C(=O)C5CN(C(=O)OC(C)(C)C)C5)[nH]4)cc3)cc2)[nH]1)c1ccccc1 [Example 84-27, tert-butyl 3-(((2S)-2-(5-(4′-(2-((2S)-1-((2R)-2-((methoxycarbonyl)amino)-2-phenylacetyl)-2-pyrrolidinyl)-1H-imidazol-5-yl)-4-biphenylyl)-1H-imidazol-2-yl)-1-pyrrolidinyl)carbonyl)-1-azetidinecarboxylate]",1 to 999 pM
17,"CCN(CC)[C@@H](C(=O)N1CCC[C@H]1c1ncc(-c2ccc(-c3ccc(-c4cnc([C@@H]5CCCN5C(=O)[C@H](C)NC(=O)OC)[nH]4)c(F)c3)cc2)[nH]1)c1ccccc1 [Example D36, methyl ((1S)-2-((2S)-2-(5-(4′-(2-((2S)-1-((2R)-2-(diethylamino)-2-phenylacetyl)-2-pyrrolidinyl)-1H-imidazol-5-yl)-3-fluoro-4-biphenylyl)-1H-imidazol-2-yl)-1-pyrrolidinyl)-1-methyl-2-oxoethyl)carbamate]",1 to 999 pM
